Laboratory results published in US9051575B2, “Alga in which production of photosynthetic products is improved, and use for said alga” (Japan Science and Technology Agency, priority 2010, dated 2015).
“Also recorded” adds a separate entry of the source.

Assays:
Assay type in all cases: cell-based, Chlamydomonas reinhardtii
[1] = system: GSH1 overexpressing strain; test: Flow cytometry of particle densities in the culture (TAP medium, semi-heterotrophic); conditions: addition of 8 mM BSO, 45 μE/m^2/sec, number of particles in 1 mL culture solution divided by the cube of 10
Procedure: (§1) The GSH1 overexpressing strain produced in Example 1 was cultured under a semi-heterotrophic condition with the use of tris-acetate-phosphate (TAP) medium having pH7 (see Proc. Natl. Acad. Sci. USA, 54, 1665-1669.), and a growth capacity and a starch production capacity of the GSH1 overexpressing strain were evaluated. A CC503 strain (hereinafter referred to as “parent strain (wild-type strain)”) which is a wild-type Chlamydomonas strain was used as a control.
(§2) Flow cytometry was carried out for more detailed analysis of the states of the GSH1 overexpressing strain of Sample 4 and the parent strain (wild-type strain) of Sample 8. Specifically, the cells of Samples 4 and 8 were irradiated with excitation light of 488 nm, and fluorescence intensity in the vicinity of 600 nm was measured. The fluorescence in the vicinity of 600 nm corresponds to chlorophyll fluorescence. Along with the chlorophyll fluorescence, fluorescent particles (produced by Beckman Coulter Inc., product name: Flow count) were used as an internal control for measuring a cell density. In this way, fluorescence in the range from 525 nm to 700 nm emitted by the excitation light of 488 nm was measured. Further, forward-scattered light and lateral-scattered light were measured so as to measure cell (particle) size and cell (particle) internal complexity.
(§3) Note that the number of cells (particles) shown in Tables 3 and 4, which is expressed by a value obtained by dividing the number of particles contained in 1 mL of the culture solution by the cube of 10, was found on the basis of the value of the internal control.

[2] = system: parent strain (wild-type strain) CC503; test: as above; conditions: addition of 8 mM BSO, 45 μE/m^2/sec, number of particles in 1 mL culture solution divided by the cube of 10
Procedure: as §1, §2, §3

[3] = system: GSH1 overexpressing strain; test: Starch production capacity / discharge of starch grains to outside of cells (clouding of culture solution, iodostarch reaction); conditions: BSO added to TAP medium, final concentration 8 mM
Procedure: as §1
L-Buthionine-sulfoximine (abbreviated as BSO (produced by Sigma-Aldrich Corporation, Model No. B2515) added to TAP medium in Samples 2 and 6 is an inhibitor for GSH synthesis.
(a) of FIG. 1 is a graph showing growth capacities of the respective GSH1 overexpressing strains, and (b) of FIG. 1 is a view showing states of respective culture solutions 309 hours after start of culturing. (a) of FIG. 2 is a graph showing growth capacities of respective parent strains (wild-type strains), and (b) of FIG. 2 is a view showing states of respective culture solutions 215 hours after start of culturing. […] The optical density represented by the vertical axis was measured by a device (manufactured by TAITEC CORPORATION, ODSensor-S/ODBox-A) for measuring an OD value on the basis of a transmission amount of infrared rays (950 nm). […]

Which results are given for `CCCCS(=N)(=O)CCC(N)C(=O)O` [BSO, L-Buthionine-sulfoximine]?
density of particles which did not emit chlorophyll-derived fluorescence as a result of irradiation of excitation light (488 nm) (starch grains) [1]: 602; density of particles which emitted chlorophyll-derived fluorescence as a result of irradiation of excitation light (488 nm) [1]: 4,228; density of particles which did not emit chlorophyll-derived fluorescence as a result of irradiation of excitation light (488 nm) (starch grains) [2]: 27; density of particles which emitted chlorophyll-derived fluorescence as a result of irradiation of excitation light (488 nm) [2]: 19,633; discharge of starch to an outside of the cells [3]: starch was not discharged to an outside of the cells; also recorded: starch was not discharged into an outside of the cells
